Here are results for seven sequences from paper PMC12348470, “Amino Acid Substitutions in Bacteriocin Lactolisterin BU Reveal Functional Domains Involved in Biological Activity Against Staphylococcus aureus” (Molecules, 2025).

Usually MIC stands for the least concentration at which growth counts as inhibited. As usually defined, the MBC is the lowest tested concentration that kills the bacteria rather than only halting them. Read a low MBC as more potent killing.

Ends that are not written are not given here. A value given as a limit tells only on which side of the number the result lay.

Series [1] concerns S. aureus ATCC 25923. As to the kind of experiment: Spot-on-the-lawn antimicrobial screening. The format is cell-based, Staphylococcus aureus. Conditions: 5 µL spots at 1000, 500, 250, 125 and 62.5 µg/mL on LB soft agar lawn; overnight, 37 °C. On the procedure: The antimicrobial activity screening assay of twelve chemically synthesized peptides was evaluated using a spot-on-the-lawn assay against S. aureus ATCC 25923.
S. aureus ATCC 25923 was grown overnight in LB broth, adjusted to 0.5 McFarland (~1 × 10^8 CFU/mL), and mixed 1:100 into molten soft agar (0.7% agar in LB). Five milliliters of this suspension was overlaid onto LB agar plates and allowed to solidify.
Peptide stock solutions (1 mg/mL) were serially diluted in sterile water, and 5 µL of each dilution was carefully spotted onto the surface of the inoculated agar. The plates were dried under a laminar flow hood for 15–20 min and incubated overnight at 37 °C. Zones were observed, and their size and clarity were compared.

Series [2] concerns S. aureus ATCC 25923. The format is cell-based, Staphylococcus aureus. Here is the method:
MIC values were determined by broth microdilution following the guidelines of the European Committee on Antimicrobial Susceptibility Testing (EUCAST, Version 5.0), with a modification in the choice of medium. Instead of cation-adjusted Mueller–Hinton Broth (CA-MHB), Luria–Bertani (LB) broth was used for all MIC assays involving S. aureus ATCC 25923 to ensure consistency with conditions used in complementary experiments. Two-fold serial dilutions of peptides (ranging from 1.56 to 50 µg/mL) were prepared in sterile LB, inoculated with ~5 × 10^5 CFU/mL bacterial suspension, and incubated at 37 °C for 18–20 h. MIC was defined as the lowest peptide concentration with no visible bacterial growth. All assays were performed in triplicate.

Series [3] has as its system S. aureus ATCC 25923. Type of series: cell-based, Staphylococcus aureus. The source holds these as a separate data set.
The next series concerns sheep erythrocytes. As to the kind of experiment: Hemolysis assay. Type of series: cell-based. Here is the method: Hemolytic activity of peptides was assessed as described by Dong et al., with some modifications. Fresh defibrinated sheep blood was obtained from the Institute of Virology, Vaccines and Sera “Torlak” (Belgrade, Serbia). Erythrocytes were washed three times with sterile Tris-buffered saline (TBS, 10 mM TRIS-HCl, pH 7.4, 150 mM NaCl) by centrifugation at 800× g for 5 min and resuspended to a final 2% (v/v) erythrocyte suspension in TBS.
Peptide solutions (0.02 M HCl) were diluted in Tris-buffered saline (TBS, 10 mM TRIS-HCl, pH 7.4, 150 mM NaCl) to final concentrations ranging from 6.25 to 50 µg/mL. In a 96-well flat-bottom plate, 100 µL of peptide solution was mixed with 100 µL of erythrocyte suspension and incubated at 37 °C for 1 h.
After incubation, the plates were centrifuged at 1000× g for 5 min, and 100 µL of the supernatant was transferred to a flat-bottom 96-well plate. Absorbance was measured at 540 nm using a microplate reader (model BioTek Epoch Microplate Spectrophotometer; Agilent Technologies, Winooski, VT, USA).
Hemolysis (%) was calculated relative to a negative control (TBS; 0% lysis) and a positive control (0.1% SDS; 100% lysis) using the formula: Hemolysis (%)=Asample−ATBS/ASDS−ATBS×100
The assay was performed in triplicate.

A further series relates to Danio rerio embryos. As to the kind of experiment: Zebrafish embryo toxicity (OECD TG 236). Conditions: 120 hpf. The format is in vivo. Here is the method:
Embryos were exposed to six different increasing concentrations of each peptide for 5 consecutive days (120 hfp) and examined for survival and signs of toxicity, following toxicological endpoints (Table S1).
The toxicity of synthetic peptide variants was assessed in vivo using Danio rerio embryos, in accordance with OECD Test Guideline 236 (Fish Embryo Acute Toxicity Test) and the European Directive 2010/63/EU on the protection of animals used for scientific purposes, according to Aleksic et al.. All procedures were conducted at the Institute of Molecular Genetics and Genetic Engineering, University of Belgrade.
Wild-type adult zebrafish were maintained under standard laboratory conditions (28 °C; 14:10 h light–dark cycle). Embryos were obtained via pairwise mating and collected within 1 h post-fertilization (hpf). At 5 hpf, the embryos were randomly distributed into 24-well plates (10 embryos/well, 1 mL embryo medium per well) containing embryo water (0.2 mg/mL Instant Ocean® salts in distilled water). Peptides were tested at five concentrations (e.g., 1.56–25 µg/mL) in triplicate. Peptide solvent was used as a negative control. The plates were incubated at 28 °C without media replacement.
Embryonic development was monitored using an inverted microscope (Zeiss Stemi 508; Carl Zeiss Microscopy GmbH, Jena, Germany). Lethal endpoints and sublethal malformations were scored according to OECD guidelines (Table S1). At 120 hpf, the embryos were anesthetized using 0.1% tricaine, photographed, and euthanized via freezing at −20 °C for 24 h.
LC50 values were estimated using the log–logistic binomial model (LL.2) from the drc package in R.
Dose–response curves and LC50 values were estimated using the log–logistic binomial model (LL.2) from the drc package in R [79] (version 2025.05.0). Mortality data were modeled as proportions of dead individuals relative to total individuals tested, and 95% confidence intervals for LC50 were calculated using the delta method.

On the set-up of series [4]: method as in PMID 28842543. The note with it: cited from earlier work.
Another series relates to gut peptidases. Also on record: method as in PMID 28842543. The note with it: cited from earlier work.

“MEGRILGTVAKYGPKAVSWAWQHKWELINMGDLAFRYIQRIWG [Peptide W2E]”: the “zones of inhibition, spot-on-the-lawn assay” value (shortened to “zones of inhibition”) in the series on S. aureus ATCC 25923 [1] was “decreased antimicrobial potency”. Besides, the MIC against S. aureus ATCC 25923 [2] is given as >50 µg/mL. For the same sequence, the MBC against S. aureus ATCC 25923 [3] is listed as >50 µg/mL.

As for “MWARILGTVAKYGPKAVSWAWQAKWELINMGDLAFRYIQRIWG [G3A/H23A]”, the “zones of inhibition” value with S. aureus ATCC 25923 [1] is reported as “complete loss of antimicrobial activity”. For the same sequence, the MIC against S. aureus ATCC 25923 [2] is on record as >50 µg/mL. Besides, the MBC against S. aureus ATCC 25923 [3] is reported as >50 µg/mL.

Consider “MWGRILGTVAKYGAKAVSWAWQHKWELINMGDLAFRYIQRIWG [Peptide P14A]”, for which the “zones of inhibition” value in the series on S. aureus ATCC 25923 [1] is “only faint inhibition zones at the highest concentrations (1000 and 500 µg/mL)”. The same sequence displayed an MIC in the series with S. aureus ATCC 25923 [2] of 25 µg/mL.

Turning to “MWGRILGTVAKYGPKAVSWAWQAKWELINMGDLAFRYIQRIWG [Peptide H23A]”, the “zones of inhibition” value in the series on S. aureus ATCC 25923 [1] is on record as “complete loss of antimicrobial activity”. In addition, the MIC with S. aureus ATCC 25923 [2] was >50 µg/mL. For the same sequence, the minimal bactericidal concentration (MBC) with S. aureus ATCC 25923 [3] is reported as >50 µg/mL.

Turning to “MWGRILGTVAKYGPKAVSWAWQHKWELINMGDLAFRYIQRIWG [LBU]”, the “zones of inhibition” value in the series with S. aureus ATCC 25923 [1] was “clear zones of inhibition across the tested concentrations, except 62.5 µg/mL”. The same sequence displayed an MIC in the series on S. aureus ATCC 25923 [2] of 12.5 µg/mL. The MBC in the series on S. aureus ATCC 25923 [3] is given as 25 µg/mL. Also, in the series on sheep erythrocytes (6.25 to 50 µg/mL, sheep erythrocytes, 37 °C, 1 h), the “hemolytic activity, in words” value was “negligible hemolytic activity across all concentrations”. In the series on sheep erythrocytes (pH 7.4), the “Hemolytic activity (%) at 50 µg/mL” value came out at 2.98%. The “concentration at which yolk sac retention was observed” value in the series on Danio rerio embryos was determined as 6250 ng/mL. Further, in series [4], the “pH range of activity” value is “shows activity in a wide pH range” and the salt tolerance entry is given as “salt-tolerable”. Further, the “sensitivity to gut peptidases” value in the series with gut peptidases was “sensitive to gut peptidases”.

In the case of “MWGRILGTVAKYGPKAVSWAWQRKWELINMGDLAFRYIQRIWG [Peptide H23R]”, in the series on S. aureus ATCC 25923 [1], the “zones of inhibition” value was “comparable to the wild-type LBU peptide”. In the series on S. aureus ATCC 25923 [2], this sequence came in with an MIC of 12.5 µg/mL. Besides, the MBC with S. aureus ATCC 25923 [3] was 50 µg/mL.

As to “MWGRILGTVAKYGTKAVSWAWQHKWELINMGDLAFRYIQRIWG [Peptide P14T]”, in the series with S. aureus ATCC 25923 [1], the “zones of inhibition” value is given as “retained partial activity with a mild decrease in zone diameter compared to LBU”. In the series with S. aureus ATCC 25923 [2], this sequence registered an MIC of 25 µg/mL. Further, the MBC in the series on S. aureus ATCC 25923 [3] was >50 µg/mL.
